{"source": "patent US20250171776A1", "about": "“NON-CANONICAL CELL-PENETRATING PEPTIDES FOR ANTISENSE OLIGOMER DELIVERY” (priority 2023, published 2025)", "assay_type_in_all_cases": "cell-based", "key": {"[1]": {"system": "HeLa 654 cells", "test": "HeLa 654 eGFP assay (flow cytometry, mean eGFP fluorescence, 22 h)", "settings": "1 μM, 22 h", "experimental": "Purified constructs were then tested using an activity-based readout in which nuclear delivery results in fluorescence. Briefly, HeLa cells stably transfected with an Enhanced Green Fluorescent Protein (eGFP) gene interrupted by a mutated intron of β-globin (IVS2-654) produce a non-fluorescent eGFP protein. As used herein, Hela-654 cells refers to the Hela cells transfected with an Enhanced Green Fluorescent Protein (eGFP) gene interrupted by a mutated intron of β-globin (IVS2-654) and Hela-654 eGFP Assay is used to refer to an Assay that uses the Hela-654 cells. Successful delivery of PMO IVS2-654 to the nucleus results in corrective splicing and eGFP synthesis.\nThe amount of PMO delivered to the nucleus is therefore correlated with eGFP fluorescence, quantified by flow cytometry. Activity was reported as mean fluorescence intensity (MFI) relative to PMO alone. This activity assay provides indirect information on how much active PMO is delivered to the nucleus. Relative efficiency of a PMO-CPP conjugate was characterized by comparing activity to internal concentration.\n[…] 18 h prior to treatment, the cells were plated at a density of 5,000 cells per well in a 96-well plate in DMEM supplemented with 10% FBS and 1% penicillin-streptomycin.\nFor individual peptide testing, PPMOs were dissolved in phosphate buffered saline (PBS) without Ca^2+ or Mg^2+ at a concentration of 1 mM (determined by UV absorbance of the PMO) before being diluted in Dulbecco's modified eagle medium (DMEM). Cells were incubated at the designated concentrations in triplicate for 22 h at 37° C. and 5% CO2. Next, the treatment media was removed, and the cells were washed once before being incubated with 0.25% Trypsin-EDTA for 15 min at 37° C. and 5% CO2. Lifted cells were transferred to a V-bottom 96-well plate and washed once with PBS, before being resuspended in PBS containing 2% FBS and 2 μg/mL propidium iodide (PI). Flow cytometry analysis was carried out on a BD LSRII flow cytometer. Gates were applied to the data to ensure that cells that were positive for propidium iodide or had forward/side scatter readings that were sufficiently different from the main cell population were excluded. Each sample was capped at 5,000 gated events.\nAnalysis was conducted using Graphpad Prism 7 and FlowJo. For each sample, the mean fluorescence intensity (MFI) and the number of gated cells were measured. To report activity, triplicate MFI values were averaged and normalized to the PMO alone condition."}, "[2]": {"system": "HELA-654 cells", "test": "Hela-654 eGFP assay (incucyte imaging, GFP positive cells, 72 h)", "settings": "chimeric peptide PMO conjugates, 72 h, read-out: EC50 (at 72 h)", "experimental": "HELA-654 cells were imaged at 72 hours with an incucyte and the number of GFP positive cells versus total cell counts were calculated with the incucyte image analysis software. Statistical analysis was conducted using a one-way analysis of variance (ANOVA) test with Dunnett's multiple comparison test. Bars represent mean±standard deviation (SD), with P<0.05 was considered to indicate statistical significance, (**** p<0.0001, *** […], ** p<0.01, * p<0.05).\nHELA-654 cells were imaged at 72 hours with an incucyte and the number of GFP positive cells versus total cell counts were calculated with the incucyte image analysis software."}, "[3]": {"system": "HeLa 654 cells", "test": "Lactate dehydrogenase (LDH) release assay in HeLa 654 cells", "settings": "50 μM", "experimental": "(§1) The media from the cells was analyzed for LDH release with an LDH assay and the percentage of LDH release was calculated relative to fully lysed cells.\n(§2) Cytotoxicity assays were performed in HeLa 654 cells or TH-1 renal cells. TH-1 cells were maintained in DMEM supplemented with 10% (v/v) fetal bovine serum (FBS) and 1% (v/v) penicillin-streptomycin at 37° C. and 5% CO2H-1. Cells were plated at 5,000 cells/well in a 96-well plate 18-hours prior to treatment and treated with PMO-peptide compounds as described above. HeLa cell LDH assays were performed concurrently on the cells treated for Flow cytometry, so all plating and treatment protocols match those described above.\n(§3) 17 hours after cell treatment, the Promega CytoTox lysis solution was added to 3 wells of each plate as a fully lysed control (100% LDH-release). 18 hours after treatment, cell supernatant was transferred to a new 96-well plate for analysis of LDH release. To each well of the 96-well plate containing supernatant was added CytoTox 96 Reagent (Promega). […] Equal volume of Stop Solution was added to each well, mixed, and the absorbance of each well was measured at 490 nm. The measurement of vehicle-treated cells was subtracted from each measurement, and % LDH release was calculated as % cytotoxicity=100×Experimental LDH Release (OD490)/Maximum LDH Release (OD490)."}, "[4]": {"system": "TH-1 renal cells", "test": "Lactate dehydrogenase (LDH) release assay in TH-1 renal cells", "settings": "LDH release at 18 hours", "experimental": "as §1, §2, §3"}}, "note": "Where no end group is shown, it is not given here. [ ]: non-standard residue; d: D form. Iph = iodophenylalanine", "data": [{"substance": "Lys-Gln-Lys-Thr-Ser-Iph-Gly-Arg-Lys-Trp-Lys-Gln-Lys-Thr-Ser-Iph-Gly-Arg-Lys-Trp-Lys-Lys (KQKTS[Iph]GRKWKQKTS[Iph]GRKWKK; not fully specified (N-terminus, C-terminus); printed as Lys-Gln-Lys-Thr-Ser-Iph-Gly-Arg-Lys-Trp-Lys-Gln-Lys-Thr-Ser-Iph-Gly-Arg-Lys-Trp-Lys-Lys; also: PMO IVS2-654 conjugate) [CXD1B]", "values": [{"measurement": "PMO delivery (mean eGFP fluorescence relative to vehicle)", "setting": "[1]", "value": "high PMO delivery"}, {"measurement": "EC50", "setting": "[2]", "value": 3.54, "unit": "µM"}, {"measurement": "Toxicity: LDH release", "setting": "[3]", "value": "lower toxicity than the CXP1-CXP1 sequence"}, {"measurement": "Therapeutic window (HeLa-654 eGFP efficacy versus LDH release in TH-1 renal cells)", "setting": "[4]", "value": "wider therapeutic window in comparison to other PMO-peptide conjugates"}]}]}
